Patent publication US11672794B2, “Therapeutic targeting of the BAP1 complex in cancer” (NORTHWESTERN UNIVERSITY, priority 2019, dated 2023)

How the values were obtained:
[1] = target: T1, recombinant BAP1 (Homo sapiens, UniProt Q92560); experiment: Ub-AMC assay of BAP1 deubiquitinase activity; type: biochemical; conditions: 100 nM Ub-AMC, 0.1 nM recombinant BAP1
T1 construct: made in house; host or cells: bacteria
T1 sequence (Q92560 1-729): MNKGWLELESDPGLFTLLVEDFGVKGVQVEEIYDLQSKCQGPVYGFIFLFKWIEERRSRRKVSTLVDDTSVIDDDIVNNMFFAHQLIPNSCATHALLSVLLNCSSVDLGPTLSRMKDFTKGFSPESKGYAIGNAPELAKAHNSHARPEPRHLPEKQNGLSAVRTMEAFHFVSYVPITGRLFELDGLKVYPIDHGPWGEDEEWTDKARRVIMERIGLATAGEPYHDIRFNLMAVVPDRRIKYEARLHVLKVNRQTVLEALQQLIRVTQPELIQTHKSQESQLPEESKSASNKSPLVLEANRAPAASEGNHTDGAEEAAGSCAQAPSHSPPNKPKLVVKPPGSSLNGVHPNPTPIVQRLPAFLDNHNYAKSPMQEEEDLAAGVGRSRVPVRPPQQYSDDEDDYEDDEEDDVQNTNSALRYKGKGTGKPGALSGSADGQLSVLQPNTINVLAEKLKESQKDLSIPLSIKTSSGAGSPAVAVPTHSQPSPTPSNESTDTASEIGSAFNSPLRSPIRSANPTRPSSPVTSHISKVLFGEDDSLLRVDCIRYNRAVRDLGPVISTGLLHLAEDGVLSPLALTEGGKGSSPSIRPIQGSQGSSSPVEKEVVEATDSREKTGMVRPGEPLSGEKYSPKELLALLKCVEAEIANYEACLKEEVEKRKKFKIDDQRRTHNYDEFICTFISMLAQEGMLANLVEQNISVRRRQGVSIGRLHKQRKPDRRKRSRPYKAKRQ
Excerpt: (§1) Since the truncated ASXL1 functions as co-activator of BAP1 in human leukemic cells, and based on previous studies, mutations in ASXL1 lead to the hyper-activation of BAP1 in mice (16), we sought to identify small molecule inhibitors that inhibit BAP1 catalytic activity. Although crucial catalytic residues in BAP1 have been identified through general homology with other deubiquitinases, a detailed atomic resolution structure of BAP1 has yet to be determined. Therefore, because a structure-based approach is currently unattainable, we adopted a structure-agnostic unbiased biochemical screen for small molecule inhibitors of BAP1′s deubiquitinase activity. Toward this goal, we employed an Ubiquitin- 7-amino-4-methylcoumarin (Ub-AMC) screening platform. Ubiquitin-AMC (Ub-AMC) is a fluorogenic substrate for ubiquitin hydrolases based on the C-terminus derivatization of ubiquitin with 7-amido-4-methylcoumarin (AMC). Upon incubation with a protease recognizing Ubiquitin, such as BAP1, AMC is released and the increase in fluorescence can be measured (7, 17) (FIG. 4A). We optimized the screening condition and finally used 100 nM Ub-AMC and 0.1 nM recombinant BAP1 (FIG. 10A) for the reaction (FIG. 10B). The top 1% hits from 3,000 of 8-compound mixtures were subjected for a secondary validation (FIG. 10C, D). […]

[2] = test system: 293T-ASXL1-Y591* mutant cells vs 293T-ASXL1-WT cells; experiment: Cell viability (cell counting) of 293T-ASXL1-WT and 293T-ASXL1-Y591* mutant cells, 72 hours; type: cell-based, human; conditions: cell counting assay
Procedure: FIG. 11. Analog for compound #7152836 A) Structure of 16 analogs for compound #7152836. B) Dose-dependent inhibition of BAP1 activity the analogs in (A) in Ub-AMC assay. C) 293T-ASXL1-WT, 293T-ASXL1-Y591* mutant cells were treated with different concentrations of Doxorubicin, HSP90 inhibitor PU-H71, UCHLS inhibitor b-AP1 and iBAP for 72 hours. The cell viability was determined by cell counting assay.
as §1, with “Ubiquitin-AMC (Ub-AMC) is a fluorogenic substrate for ubiquitin hydrolases based on the C-terminus derivatization of ubiquitin with 7-amido-4-methylcoumarin (AMC).” left out, “4A).” for “4A). We optimized the screening condition and finally used 100 nM Ub-AMC and 0.1 nM recombinant BAP1 (FIG. 10A) for the reaction (FIG. 10B). The top 1% hits from 3,000 of 8-compound mixtures were subjected for a secondary validation (FIG. 10C, D).”

| SMILES | inhibition of BAP1 catalytic activity in vitro [1] | difference of cell viability between ASXL1 wild type and mutant cells [2] |
| --- | --- | --- |
| COc1ccccc1C(=O)NC(=S)Nc1ccc2oc(-c3cc(F)c(F)cc3Cl)nc2c1 [#7231120] | could efficiently inhibit BAP1 catalytic activity |  |
| C=CC(=O)N1C/C(=C\c2ccc([N+](=O)[O-])cc2)C(=O)/C(=C/c2ccc([N+](=O)[O-])cc2)C1 [UCHLS inhibitor] |  | did not observe any significant difference |
